ChEMBL document CHEMBL1148353, “Development of potent bifunctional endomorphin-2 analogues with mixed mu-/delta-opioid agonist and delta-opioid antagonist properties” (J Med Chem, 2004)
Where a SMILES comes first, the peptide text is derived from it. [ ]: non-standard residue; d: D form. The star is where a group is joined. Dmt = Cc1cc(O)cc(C)c1C[C@H](N)C(=O)O; NHPhenethyl = c1ccc(CCN*)cc1; NHBn = c1ccc(CN*)cc1; NHPh = c1ccc(N*)cc1; NHtBu = CC(C)(C)N*

Tests used:
Cavia porcellus = organism: Cavia porcellus; assay: In vitro inhibitory concentration against electrically induced twitches in guinea pig ileum; assay type: functional
Mus musculus = organism: Mus musculus; assay: In vitro inhibitory concentration against electrically induced twitches in mouse vas deferens; assay type: functional
[1] = molecular target: Delta-type opioid receptor (Rattus norvegicus, UniProt P33533); assay: Binding affinity against rat brain opioid receptor delta 1 using [3H]DPDPE radioligand
Delta-type opioid receptor, sequence (P33533 whole entry): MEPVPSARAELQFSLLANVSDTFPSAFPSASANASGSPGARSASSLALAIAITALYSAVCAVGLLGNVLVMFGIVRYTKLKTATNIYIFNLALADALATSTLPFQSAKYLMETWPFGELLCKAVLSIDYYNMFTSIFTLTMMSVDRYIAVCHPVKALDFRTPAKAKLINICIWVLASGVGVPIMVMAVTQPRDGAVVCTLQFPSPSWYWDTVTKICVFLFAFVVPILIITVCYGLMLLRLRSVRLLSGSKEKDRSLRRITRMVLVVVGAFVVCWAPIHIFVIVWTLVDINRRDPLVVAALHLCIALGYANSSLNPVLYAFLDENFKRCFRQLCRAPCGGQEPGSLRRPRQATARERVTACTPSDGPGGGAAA

[2] = molecular target: Opioid receptors; mu & delta (Rattus norvegicus) (UniProt P33533+P33535); assay: Ratio of binding affinity against rat brain delta opioid receptor to that of mu opioid receptor
Opioid receptors; mu & delta (Rattus norvegicus), sequence (P33533 whole entry, looked up): as the sequence (P33533 whole entry) above
Opioid receptors; mu & delta (Rattus norvegicus), sequence (P33535 whole entry, looked up): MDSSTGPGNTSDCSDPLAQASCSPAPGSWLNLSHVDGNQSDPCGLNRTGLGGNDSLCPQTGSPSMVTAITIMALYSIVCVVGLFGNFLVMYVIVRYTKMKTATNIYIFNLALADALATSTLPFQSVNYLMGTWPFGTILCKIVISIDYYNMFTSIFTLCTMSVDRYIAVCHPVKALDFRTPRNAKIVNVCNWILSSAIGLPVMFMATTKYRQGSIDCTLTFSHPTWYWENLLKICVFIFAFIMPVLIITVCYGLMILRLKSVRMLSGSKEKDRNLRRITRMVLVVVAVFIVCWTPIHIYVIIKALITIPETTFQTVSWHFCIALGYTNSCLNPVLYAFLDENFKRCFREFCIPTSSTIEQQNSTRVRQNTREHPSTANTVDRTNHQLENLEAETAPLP

Mu-type opioid receptor = Mu-type opioid receptor (Rattus norvegicus, UniProt P33535); assay: Binding affinity against rat brain Opioid receptor mu 1 using [3H]DAMGO radioligand
Mu-type opioid receptor, sequence (P33535 whole entry): as the sequence (P33535 whole entry, looked up) above

Compound	IC50 (Cavia porcellus) [nM]	IC50 (Mus musculus) [nM]	Ki [1] [nM]	Ratio [2]	Ki (Mu-type opioid receptor) [nM]
Cc1cc(O)cc(C)c1C[C@H](N)C(=O)N1CCC[C@H]1C(=O)N[C@@H](Cc1ccccc1)C(=O)Nc1cccc2ccccc12	0.49	5.47	19.9	68	–
N[C@@H](Cc1ccc(O)cc1)C(=O)N1CCC[C@H]1C(=O)N[C@@H](Cc1ccccc1)C(=O)Nc1ccc2ncccc2c1	–	–	9880	136	72.9
N[C@@H](Cc1ccc(O)cc1)C(=O)N1CCC[C@H]1C(=O)N[C@@H](Cc1ccccc1)C(=O)NC1CCCCC1	–	–	8110	1400	5.79
Cc1cc(O)cc(C)c1C[C@H](N)C(=O)N1CCC[C@H]1C(=O)N[C@@H](Cc1ccccc1)C(=O)Nc1ccncc1	11.8	10000	52.7	–	0.36
Cc1cc(O)cc(C)c1C[C@H](N)C(=O)N1CCC[C@H]1C(=O)N[C@@H](Cc1ccccc1)C(=O)Nc1cccc2cnccc12	0.94	> 10000	98.3	–	0.19
Cc1cc(O)cc(C)c1C[C@H](N)C(=O)N1CCC[C@H]1C(=O)N[C@@H](Cc1ccccc1)C(=O)Nc1cccc2cccnc12	445	2980	33.1	–	0.49
Cc1cc(O)cc(C)c1C[C@H](N)C(=O)N1CCC[C@H]1C(=O)N[C@@H](Cc1ccccc1)C(=O)Nc1ccccn1	15	> 10000	157	–	0.13
NC(=O)[C@H](Cc1ccccc1)NC(=O)[C@H](Cc1ccccc1)NC(=O)[C@@H]1CCCN1C(=O)[C@@H](N)Cc1ccc(O)cc1 [ENDOMORPHIN 2]	5.79	344	–	–	–
N[C@@H](Cc1ccc(O)cc1)C(=O)N1CCC[C@H]1C(=O)N[C@@H](Cc1ccccc1)C(=O)NCCc1ccccc1 (H-Tyr-Pro-Phe-NHPhenethyl)	–	–	4310	324	13.3
N[C@@H](Cc1ccc(O)cc1)C(=O)N1CCC[C@H]1C(=O)N[C@@H](Cc1ccccc1)C(=O)Nc1cccc2cnccc12	–	–	3480	57	61.1
N[C@@H](Cc1ccc(O)cc1)C(=O)N1CCC[C@H]1C(=O)N[C@@H](Cc1ccccc1)C(=O)Nc1cccnc1	–	–	19400	400	48.5
N[C@@H](Cc1ccc(O)cc1)C(=O)N1CCC[C@H]1C(=O)N[C@@H](Cc1ccccc1)C(=O)NC12C[C@H]3C[C@@H](C1)C[C@@H](C2)C3	–	–	6260	265	23.6
N[C@@H](Cc1ccc(O)cc1)C(=O)N1CCC[C@H]1C(=O)N[C@@H](Cc1ccccc1)C(=O)Nc1ccccn1	–	–	19700	742	26.5
Cc1cc(O)cc(C)c1C[C@H](N)C(=O)N1CCC[C@H]1C(=O)N[C@@H](Cc1ccccc1)C(=O)Nc1cccnc1	72.8	> 10000	288	–	0.17
N[C@@H](Cc1ccc(O)cc1)C(=O)N1CCC[C@H]1C(=O)N[C@@H](Cc1ccccc1)C(=O)NCc1ccccc1 (H-Tyr-Pro-Phe-NHBn)	–	–	1730	80	21.6
Cc1cc(O)cc(C)c1C[C@H](N)C(=O)N1CCC[C@H]1C(=O)N[C@@H](Cc1ccccc1)C(=O)Nc1ccccc1 (H-[Dmt]-Pro-Phe-NHPh)	37.7	> 10000	20.6	–	1.11

Compound	IC50 (Cavia porcellus) [nM]	IC50 (Mus musculus) [nM]	Ki [1] [nM]	Ratio [2]	Ki (Mu-type opioid receptor) [nM]
N[C@@H](Cc1ccc(O)cc1)C(=O)N1CCC[C@H]1C(=O)N[C@@H](Cc1ccccc1)C(=O)Nc1cnc2ccccc2c1	–	–	18600	333	55.8
N[C@@H](Cc1ccc(O)cc1)C(=O)N1CCC[C@H]1C(=O)N[C@@H](Cc1ccccc1)C(=O)Nc1cccc2ccccc12	–	–	3640	1510	2.41
N[C@@H](Cc1ccc(O)cc1)C(=O)N1CCC[C@H]1C(=O)N[C@@H](Cc1ccccc1)C(=O)NC1C2C[C@H]3C[C@@H](C2)C[C@@H]1C3 (some centres undefined)	–	–	5560	844	6.59
Cc1cc(O)cc(C)c1C[C@H](N)C(=O)N1CCC[C@H]1C(=O)N[C@@H](Cc1ccccc1)C(=O)N[C@@H](Cc1ccccc1)C(N)=O	0.07	1.87	28.2	188	0.15
Cc1cc(O)cc(C)c1C[C@H](N)C(=O)N1CCC[C@H]1C(=O)N[C@@H](Cc1ccccc1)C(=O)Nc1cnc2ccccc2c1	9.14	> 10000	190	577	0.33
N[C@@H](Cc1ccc(O)cc1)C(=O)N1CCC[C@H]1C(=O)N[C@@H](Cc1ccccc1)C(=O)Nc1cccc2ncccc12	–	–	12700	3110	4.07
N[C@@H](Cc1ccc(O)cc1)C(=O)N1CCC[C@H]1C(=O)N[C@@H](Cc1ccccc1)C(=O)Nc1ccncc1	–	–	25100	521	48.2
N[C@@H](Cc1ccc(O)cc1)C(=O)N1CCC[C@H]1C(=O)N[C@@H](Cc1ccccc1)C(=O)Nc1ccccc1 (H-Tyr-Pro-Phe-NHPh)	–	–	23200	692	33.5
Cc1cc(O)cc(C)c1C[C@H](N)C(=O)N1CCC[C@H]1C(=O)N[C@@H](Cc1ccccc1)C(=O)Nc1ccc2ncccc2c1	6.21	> 10000	46.6	–	0.22
NC(=O)[C@H](Cc1ccccc1)NC(=O)[C@@H]1CCCN1C(=O)[C@@H](N)Cc1ccc(O)cc1 (H-Tyr-Pro-Phe-NH2)	–	–	15900	343	46.3
Cc1cc(O)cc(C)c1C[C@H](N)C(=O)N1CCC[C@H]1C(=O)N[C@@H](Cc1ccccc1)C(=O)Nc1cccc2ncccc12	0.26	0.616	30	283	0.11
Cc1cc(O)cc(C)c1C[C@H](N)C(=O)N1CCC[C@H]1C(=O)N[C@@H](Cc1ccccc1)C(=O)NCCc1ccccc1 (H-[Dmt]-Pro-Phe-NHPhenethyl)	5.03	> 10000	18	35	0.51
N[C@@H](Cc1ccc(O)cc1)C(=O)N1CCC[C@H]1C(=O)N[C@@H](Cc1ccccc1)C(=O)Nc1cccc2cccnc12	–	–	17100	68	249
Cc1cc(O)cc(C)c1C[C@H](N)C(=O)N1CCC[C@H]1C(=O)N[C@@H](Cc1ccccc1)C(N)=O (H-[Dmt]-Pro-Phe-NH2)	2.33	113	53.2	443	0.12
Cc1cc(O)cc(C)c1C[C@H](N)C(=O)N1CCC[C@H]1C(=O)N[C@@H](Cc1ccccc1)C(=O)NCc1ccccc1 (H-[Dmt]-Pro-Phe-NHBn)	22	> 10000	13.8	–	0.52
CC(C)(C)NC(=O)[C@H](Cc1ccccc1)NC(=O)[C@@H]1CCCN1C(=O)[C@@H](N)Cc1ccc(O)cc1 (H-Tyr-Pro-Phe-NHtBu)	–	–	13300	680	19.6
